# Marks after values point to notes of the source that are not given here.
# Legend:
# S. typhi [1] = test: MIC (D10 %) of active compounds in ground beef, S. typhi; type: cell-based, Salmonella typhi (ATCC 19430); details: non-irradiated ground beef, 10^5 CFU/g, stored at 4° C. for 24 hours; % w/w or v/w
# Protocol: (§1) Escherichia coli (ATCC 25922) and Salmonella typhi (ATCC 19430) were obtained from the American Type Culture Collection (Rockville, Md., USA) and maintained at −80° C. in Tryptic Soy Broth (TSB; Difco Laboratory, Detroit, Mich.) containing glycerol (10%; v/v). Before each experiment, stock cultures were subcultured through two consecutive 24 h growth cycles in TSB at 35° C. to obtain working cultures containing approximately 10^9 UCF/ml for E. coli and S. typhi.
# (§2) Samples were homogenised for 2 min in sterile peptone water (0.1%) using a Lab-blender 400 stomacher (Laboratory Equipment, London, UK). From this mixture, serial dilutions were prepared and appropriate ones were pour-plated in tryptic soy agar (TSA) (Difco, Laboratories, Detroit, Mich., USA) and incubated at 35° C., 24 hours for the numeration of E. coli and S. typhi.
# (§3) D10 deteriiination: The kinetics of bacteria destruction by irradiation with or without the active compounds and under different packaging conditions was evaluated by linear regression. Bacterial counts (log CFU/ml) were plotted against irradiation doses or compound concentrations and the D10 values were calculated using SigmaPlot program. Statistical analysis was done using SPSS program. The Duncan test was used with a probability of 0.05.
# (§4) The MIC values for the active compounds were determined on the basis of their antibacterial effectiveness in meat. Concentrations retained were those to reduce by 1 log CFU the population of E. coli or S. typhi in ground beef. Ground beef samples weighing 200 g were contaminated with working cultures of E. coli or S. typhi to obtain a final concentration of 10^5 CFU/g. The ground beef samples containing micro-organisms was mixed during 3 minutes at medium speed in a 4L-conmmercial blender (Waring Products, New Hartford, Col., USA) and different concentrations of the active compounds were incorporated, followed by another 3 minutes period mixing. Sterile petri plates (60×15 mm) were filled with ground beef samples containing micro-organisms and different concentrations of active compounds in portion of 25 g each and stored at 4° C. for 24 hours.
# (§5) In addition to the above compounds, minimal concentrations of different types of commercial Herbalox® and Duralox® required to reduce by 1 log the bacterial population of E. coli in ground beef were evaluated. […] However, an estimation of the minimal concentration was calculated using the slope of the curve.
# E. coli [2] = test: MIC (D10 %) of active compounds in ground beef, E. coli; type: cell-based, Escherichia coli (ATCC 25922); details: non-irradiated ground beef, 10^5 CFU/g, stored at 4° C. for 24 hours; % w/w or v/w
# Protocol: as §1, §2, §3, §4, §5
# S. typhi [3] = test: Irradiation sensitivity (D10) of S. typhi in ground beef; type: cell-based, Salmonella typhi (ATCC 19430)
# E. coli [4] = test: Irradiation sensitivity (D10) of E. coli in ground beef; type: cell-based, Escherichia coli (ATCC 25922)
# [5] = system: Six pathogenic and spoilage bacteria, commonly found in meat and meat products; test: MIC in artificial culture media (1 log reduction); type: cell-based
# Protocol: The concentration ot each active compound added to the meat samples was based on results obtained in a previous experiment. These concentrations represent the minimum inhibitory concentrations (MIC) of the active compounds required to be present in artificial culture media in order to reduce by 1 log the number of bacteria in culture. Six pathogenic and spoilage bacteria, commonly found in meat and meat products, were tested. […] The concentration used for carnosine (1.0%) was selected from the literature (Sebranek, 1999). The concentrations of BHA (0.01%), BHT (0.01%), EDTA (100 ppm), and tetrasodium pyrophosphate (0.1%) corresponded to the concentrations recommended by the Canadian Food Inspection Agency (CFIA).
# This value was detennined by testing six pathogenic and spoilage bacteria, commonly found in meat and meat products.
# E. coli [6] = test: Irradiation sensitivity of E. coli in chicken breast; type: cell-based, Escherichia coli (ATCC 25922); details: trans-cinnamaldehyde 0.050%, thymol 0.038%, tetrasodium pyrophosphate 0.003%, carvacrol 0.029%
# S. typhi [7] = test: Irradiation sensitivity of S. typhi in chicken breast; type: cell-based, Salmonella typhi (ATCC 19430)
# [8] = ground beef, air, 4° C., lower concentration: tannic acid 0.38%, nisin 625 UI/g, EDTA 100 ppm, carvacrol […], tetrasodium pyrophosphate 0.1%, trans-cinnamaldehyde […], thymol 0.1%, thyme 0.2%, BHT 0.01%, BHA 0.01%, rosemary 0.5%, carnosine 1.0%, ascorbic acid 0.5%
# [9] = vs control, ground beef, air, 4° C., tannic acid 0.38%, nisin 625 UI/g, EDTA 100 ppm, carvacrol […], tetrasodium pyrophosphate 0.1%, trans-cinnamaldehyde […], thymol 0.1%, thyme 0.2%, BHT 0.01%, BHA 0.01%, rosemary 0.5%, carnosine 1.0%, ascorbic acid 0.5%
# [10] = ground beef, air, 4° C., lower concentration: thymol 0.1%, tannic acid 0.38%, rosemary 0.5%, BHT 0.01%, trans-cinnamaldehyde […], carvacrol […], thyme 0.2%, BHA 0.01%, nisin 625 UI/g, EDTA 100 ppm, tetrasodium pyrophosphate 0.1%, carnosine 1.0%, ascorbic acid 0.5%
# [11] = vs control, negative = protective effect, ground beef, air, 4° C., thymol 0.1%, tannic acid 0.38%, rosemary 0.5%, BHT 0.01%, trans-cinnamaldehyde […], carvacrol […], thyme 0.2%, BHA 0.01%, nisin 625 UI/g, EDTA 100 ppm, tetrasodium pyrophosphate 0.1%, carnosine 1.0%, ascorbic acid 0.5%
Compound,D10 (%): minimal concentration of active compound required to reduce S. typhi population by 1 log in ground beef (S. typhi [1]),D10 (%): minimal concentration of active compound required to reduce E. coli population by 1 log in ground beef (E. coli [2]),D10(kGy) (S. typhi [3]; [8]),Increase in Sensitivity (S. typhi [3]; [9]),D10(kGy) (E. coli [4]; [10]),Increase in Sensitivity (E. coli [4]; [11]),further results
"O=C(OC[C@H]1O[C@@H](OC(=O)c2cc(O)c(O)c(OC(=O)c3cc(O)c(O)c(O)c3)c2)[C@H](OC(=O)c2cc(O)c(O)c(OC(=O)c3cc(O)c(O)c(O)c3)c2)[C@@H](OC(=O)c2cc(O)c(O)c(OC(=O)c3cc(O)c(O)c(O)c3)c2)[C@@H]1OC(=O)c1cc(O)c(O)c(OC(=O)c2cc(O)c(O)c(O)c2)c1)c1cc(O)c(O)c(OC(=O)c2cc(O)c(O)c(O)c2)c1 [Tannic acid, tannic acid]",21.18 ± 2.07^d %,11.15 ± 2.04^c %,–,–,–,–,–
"COc1ccc(O)c(C(C)(C)C)c1 [BHA, butylated hydroxyanisole]",–,–,0.407 ± 0.0123^h kGy,22.6%,0.117 ± 0.0026^ef kGy,7.1%,–
nisin,–,–,0.420 ± 0.0040^hi kGy,20.2%,0.120 ± 0.0089^efg kGy,4.8%,–
O=C(O)CN(CCN(CC(=O)O)CC(=O)O)CC(=O)O [EDTA],–,–,–,–,–,–,D10(kGy) (S. typhi [3]): 0.419 ± 0.0198^hi kGy; Increase in Sensitivity (S. typhi [3]): 20.3%; D10(kGy) (E. coli [4]): 0.127 ± 0.0033^gh kGy; Increase in Sensitivity (E. coli [4]): −0.8%
O=C1O[C@H]([C@@H](O)CO)C(O)=C1O [Ascorbic acid],1.83 ± 0.06^ab %,2.71 ± 0.26^b %,–,–,–,–,Mean values of MIC (concentration required in artificial culture media to reduce by 1 log the number of bacteria) [5]: 0.5%
"O=P([O-])([O-])OP(=O)([O-])[O-].[Na+].[Na+].[Na+].[Na+] [Tetrasodium pyrophosphate, tetrasodium pyrophosphate]",–,–,–,–,–,–,"D10(kGy) (E. coli [6]; chicken breast, 4° C.): 0.141 ± 0.012^bc kGy; irradiation dose necessary to completely eliminate E. coli from the chicken breast (E. coli [6]): 0.75 kGy; Increase in Sensitivity (E. coli [6]; vs control, chicken breast): 2.7%; D10(kGy) (S. typhi [7]; chicken breast, 4° C., trans-cinnamaldehyde 0.030%, tetrasodium pyrophosphate 0.003%, carvacrol 0.038%, thymol […]): 0.520 ± 0.030^b kGy; factor by which the effect was reduced in the chicken breast (S. typhi [7]; concentration of 1/30 of the MIC value in ground beef, compared with ground beef at MIC): 1.5; irradiation dose necessary to completely eliminate S. typhi from the chicken breast (S. typhi [7]; trans-cinnamaldehyde 0.030%, tetrasodium pyrophosphate 0.003%, carvacrol 0.038%, thymol […]): 2.6 kGy; Increase in Sensitivity (S. typhi [7]; vs control, chicken breast, trans-cinnamaldehyde 0.030%, tetrasodium pyrophosphate 0.003%, carvacrol 0.038%, thymol […]): 19.1%"
